Source: patent US9051572B2, “Modulators of Itch ubiquitinase activity” (RYBOQUIN COMPANY LIMITED, priority 2005, dated 2015)
Peptide text beside a SMILES is read from it. * marks the point of attachment. Cbz = O=C(OCc1ccccc1)*

Tests used:
Assay type in all cases: cell-based, human
Itch = experiment: Western blot of endogenous Itch after DNA damaging agents in Saos-2 cells; conditions: 24 and 48 hours, 2 μM doxorubicin, 15 μM etoposide, 5 μM cisplatin
Protocol: (§1) FIG. 7 Itch is down regulated by DNA damaging agents. Saos-2 cells were treated with 2 μM doxorubicin (Doxo) for 24 or 48 hours then collected by trypsinization. Cells were lysed for western blotting (A) and half of the cells were ethanol fixed for apoptosis analysis (B). Western blots were performed with either anti-Itch (upper panel) or anti-p73 (lower panel) antibodies. Blots were stripped and re-probed with anti Lamin B antibody to show equal loading. Apoptosis was evaluated by flow cytometric analysis of PI stained cells. Non-treated controls (N.T.) are shown. H1299 cells transfected with HA-TAp73 ? (Con) are loaded as a control for p73 western blot.
(D) Western blot using anti-Itch antibody on Saos-2 cells treated for 24 and 48 hours with either 15 μM etoposide (Etopo) or 5 μM cisplatin (Cisp). Non-treated control cells are also shown (N.T.). Blots were stripped and re-probed with anti p73 antibody and Lamin B antibody to show equal loading.
Proteins were separated on SDS-PAGE and blotted onto nitrocellulose membranes. Filters were blocked with TBST 5% non-fat dry milk and incubated with primary antibodies for 2 hrs at room temperature (RT). Filters were incubated for 1 hour at RT using the appropriate horseradish peroxidase-conjugated secondary antibody (rabbit and mouse BioRad; goat Santa Cruz). Detection was performed with the enhanced chemiluminescence Supersignal West Pico (Pierce). […] Endogenous Itch was detected with a mouse monoclonal antibody (BD Bioscience), Actin (sc-1615) polyclonal goat antibody (Santa Cruz), Lamin B (sc-6217) goat polyclonal antibody (Santa Cruz), Hsp70 (sc-1060) polyclonal goat antibody (Santa Cruz), β-Tubulin (sc-9104) polyclonal rabbit antibody (Santa Cruz), p21 (sc-756) polyclonal rabbit antibody (Santa Cruz), p53 DO-1 and Pab1801 monoclonal mouse antibodies (Santa Cruz). c-Myc-tagged constructs were detected or immuno-precipitated with the sc-40 monoclonal mouse antibody (Santa Cruz), HA-tagged with the sc-805 polyclonal rabbit antibody (Santa Cruz), and the Flag-tagged constructs with the M2 monoclonal mouse antibody (Sigma).

TAp73α = experiment: Steady state protein levels analysis with proteasome inhibitor in Hek293 cells co-transfected with Itch; conditions: MG132 50 μM, 40 min
Protocol: The concentration of TAp73α, TAp73 ? and p53 was monitored by Western blotting. […] 25 μg of cell lysates were subjected to Western blotting. p73 proteins were detected by an anti-HA antibody. The same blots were re-probed with anti Myc antibody to detect Itch and with anti-Actin antibody to show equal loading.

TAp73 = experiment: Western blot of endogenous p73 after doxorubicin in Saos-2 cells; conditions: 2 μM doxorubicin, 24 or 48 hours
Protocol: as §1
Proteins were separated on SDS-PAGE and blotted onto nitrocellulose membranes. Filters were blocked with TBST 5% non-fat dry milk and incubated with primary antibodies for 2 hrs at room temperature (RT). Filters were incubated for 1 hour at RT using the appropriate horseradish peroxidase-conjugated secondary antibody (rabbit and mouse BioRad; goat Santa Cruz). Detection was performed with the enhanced chemiluminescence Supersignal West Pico (Pierce). Anti-p73 is a monoclonal antibody (ER15) (Neomarkers). […]

Saos-2 cells = experiment: Apoptosis by flow cytometric analysis of PI stained cells after doxorubicin; conditions: 2 μM doxorubicin, 24 or 48 hours
Protocol: as §1
Human embryonal kidney cells (Hek293), HeLa cells and MEFs were grown in Dulbecco's modified Eagle medium (DMEM) (GibcoBRL); the human lung carcinoma cells H1299 and the human osteosarcoma cells Saos-2 were cultured in RPMI (GibcoBRL). MEF Itch−/− cells were prepared from Itch−/− mice (Y—C-Liu) or they were generous gift from Neil Copeland, Lynda Matesic, Nancy Jenkins. All media were supplemented with 10% (v/v) fetal bovine serum (FBS) (GibcoBRL). Saos-2-TAp73 ? were a kind gift of K. Vousden (Nakano, 2000). Saos-2-ΔNp73 ? were generated as described before (Maisse et al., 2004). […] Apoptosis was analysed by flow cytometric evaluation of DNA fragmentation.

SMILES | endogenous Itch protein levels (Itch) | steady state levels of TAp73α in presence of Itch (TAp73α) | endogenous TAp73 levels (TAp73) | apoptosis (Saos-2 cells)
N.N.[Cl][Pt][Cl] [cisplatin] | dramatic reduction in Itch protein levels |  |  | 
COc1cc([C@@H]2c3cc4c(cc3[C@@H](O[C@@H]3O[C@@H]5CO[C@@H](C)O[C@H]5[C@H](O)[C@H]3O)[C@H]3COC(=O)[C@H]23)OCO4)cc(OC)c1O [etoposide] | dramatic reduction in Itch protein levels |  |  | 
CC(C)C[C@@H](C=O)NC(=O)[C@H](CC(C)C)NC(=O)[C@H](CC(C)C)NC(=O)OCc1ccccc1 [MG132] (Cbz-Leu-Leu-Leu-aldehyde) |  | blocks the Itch-mediated TAp73α degradation |  | 
COc1cccc2c1C(=O)c1c(O)c3c(c(O)c1C2=O)C[C@@](O)(C(=O)CO)C[C@@H]3O[C@H]1C[C@H](N)[C@H](O)[C@H](C)O1 [doxorubicin] | down-regulated |  | increase in endogenous TAp73 levels | increase in apoptosis
